Data from a melting point compilation (Tetko et al.; mined from patent text by program, amines drawn as free bases though some values may be those of a salt).

Compound | melting point [°C]
CCc1ccc(Nc2nc3cc(NC(=O)c4cc(F)cc(C(F)(F)F)c4)ccc3o2)cc1 | > 250
O=C(Nc1ccc2ccc(Oc3ccccc3)nc2n1)c1cccs1 | 176
O=C(O)CS(=O)(=O)Nc1c(F)cc(F)cc1F | 126 to 127
CC(C)(OCc1cc2nc(C(F)(F)F)ccc2n1S(=O)(=O)c1ccccc1)C(=O)O | 122 to 125
CCCc1nc(C(O)C(C)(C)C)c(C(N)=O)n1Cc1ccc(-c2ccccc2-c2nnn[nH]2)cc1 (stereo not drawn) | 174 to 176
CCOC(=O)C1CCN(C(=O)/C=C/c2ccc(Sc3ccc4c(c3)OCCO4)c([N+](=O)[O-])c2)CC1 | 78 to 88
CC(=O)Nc1ccc(-c2cc(C(=O)c3ccc(Cl)cc3)sc2N2CCOCC2)cc1 | 120
CCOC(=O)CNC(=O)CCc1cc(Cl)ccc1C(=O)CCCNC(=O)CCCNC(C)=O | 94 to 96
CC1(CNc2ccccc2)SC2C(NC(=O)Cc3ccccc3)C(=O)N2C1C(=O)O (stereo not drawn) | 120
CC(=O)Nc1cc([N+](=O)[O-])cc([N+](=O)[O-])c1 | 189 to 191
CNC1C(O)CC2C3CCc4cc(O)cc(C)c4C3CCC21C (stereo not drawn) | 215 to 231
O=C(CCCN1C(=O)c2ccccc2C1=O)Nc1nnc(SCc2ccccc2)s1 | 128 to 131
O=C(Nc1ccc(Oc2ccnc(N3CCC4(CC3)OCCO4)n2)c2ccccc12)c1cc(F)cc(N2CCOCC2)c1 | 115 to 117
CC(C)n1nc(-c2sc(NC(=O)c3ccccc3F)nc2-c2ccccc2)ccc1=O | 251 to 252
CCCCN(C=Nc1nnnc2c1ncn2C1CC(O)C(CO)O1)CCCC (stereo not drawn) | 107 to 109
COC(=O)C[C@H](Cc1ccc(-c2ccccc2)cc1)NCP(=O)(OC)OC | 67
O=S(=O)(Cl)CCCCCCCc1ccc(OCc2ccccc2)cc1 | 33 to 35
CO[C@@H]1[C@@H](OC)[C@H](C)O[C@@H](ONC(=O)c2ccc(-c3cn(-c4ccc(OC(F)(F)F)cc4)cn3)cc2)[C@@H]1OC | 185
Cc1cc(-n2c(=O)cc(C(F)(F)F)n(C)c2=O)c(F)cc1C#N | 186
CC(C)(C)c1noc(-c2ncn3c2[C@@H]2CCCN2C(=O)c2c(Cl)cccc2-3)n1 | 222 to 224

Compound | melting point [°C]
Nc1cccc(Cn2c(-c3ccccc3)ccc2-c2ccccc2)n1 | 143 to 144
COC(=O)C(CNC(C)=O)C1CCC(C(C)(C)C)CC1 (stereo not drawn) | 73 to 75
CNS(=O)(=O)c1cc(OC)c(OC)c(C(=O)NCC2CCCN2CC2=CCCCC2)c1 (stereo not drawn) | 120 to 121
CCCCCCCCSc1nc(NCC(C)(C)c2cc(C(C)(C)C)c(O)c(C(C)(C)C)c2)nc(NC2CC(C)(C)NC(C)(C)C2)n1 | 130
COC(=O)C1(c2ccccc2)CCN(CCNC(=O)N2C(=O)COCC2c2ccc(F)c(F)c2)CC1 (stereo not drawn) | 113 to 117
COC(=O)C1=C(O)c2sc(C(F)(F)F)cc2S(=O)(=O)N1C | 178 to 180
CC(C)(C)OC(=O)Nc1ccc(-c2ccc(S(=O)(=O)n3ccc(/C=C/C(=O)NOC4CCCCO4)c3)cc2)cn1 (stereo not drawn) | 140 to 146
CC12CC(=O)C3C(CCC4CC(O)CCC43C)C1CCC2C(=O)CCCl (stereo not drawn) | 110 to 112
Cc1oc(-c2ccco2)nc1COc1ccc(COc2nn(Cc3ccc(OCc4nc(-c5ccco5)oc4C)cc3)cc2CO)cc1 | 80 to 81
COC(=O)c1cc([N+](=O)[O-])c(Cl)c([N+](=O)[O-])c1 | 104 to 106
O=C(NC(Cc1ccccc1)C(=O)O)OCc1ccc(C#Cc2ccccc2)cc1 (stereo not drawn) | 172 to 173
CC(C)CCN1C(=O)C2(COc3cc(O)ccc32)c2ccccc21 (stereo not drawn) | 101 to 103
COc1ccc(C2NC(C(=O)O)C(C)(C)S2)c(C(=O)O)c1OC (stereo not drawn) | 90 to 91
O=C(NCCO[N+](=O)[O-])c1cscn1 | 105 to 108
OP(O)C(NC(c1ccccc1)c1ccccc1)c1ccc2ccccc2c1 (stereo not drawn) | 205 to 207
Cn1c(COc2ccc(CC3SC(=O)NC3=O)cc2)nc2ccc(Oc3ccc(NC(=O)Nc4ccccc4)cc3)cc21 (stereo not drawn) | 164 to 168
O=C(O)COc1cccc2c1Cc1sc(SCCC(c3ccccc3)c3ccccc3)nc1-2 | 100 to 103
N#CCC(=O)Nc1ccc(C(F)(F)F)cc1 | 194 to 196
CC(C)(C)S(=O)(=O)N1C[C@H](O)C[C@@H]1c1cc(F)cc(C#N)c1 | 93 to 96
CC(C)(C)OC(=O)c1ccccc1-c1ccc(CNC(=O)C2(N)CCOCC2)cc1 | 125 to 127

Compound | melting point [°C]
CCCC[C@]12OC1CC[C@]1(C)CC[C@@H]3C[C@@]12OC3(C)C (stereo partly drawn) | 70 to 72
COc1cc(Nc2nc3cccc(-c4cccc(CNC(C)=O)c4)c3o2)cc(OC)c1OC | 203 to 204
CC(C)(C)OC(=O)N1CCN(Cc2ccc([N+](=O)[O-])cc2)CC1 | 99 to 100
COc1ccc2c(c1)C1=C(SCC3(CCN(C(=O)c4cccc(Cl)c4)CC3)O1)C(=O)C2=O | 125 to 127
COc1cc(CCc2ccc(Nc3ccccc3C(=O)O)cc2)cc(OC)c1OC | 146 to 147
O=C(Nc1cccnn1)N1CCN(c2nccc(-c3cccc(F)c3)n2)CC1 | 238 to 239
COc1ccc(-c2ccsc2)c2c1c(CCN(C)C)cn2C | 120 to 122
NC1CCCCC1C(O)c1ccccc1 (stereo not drawn) | 77 to 85
CC(=O)C1CCC2C3CCC4CC(O)C(N5CCOC(C)(C)C5)CC4(C)C3CCC12C (stereo not drawn) | 174 to 176
CCOC(=O)c1cc(N2C(=O)C3=C(CCCC3)C2=O)ccc1O | 90
CN(c1ccc(CCNCC(O)COc2ccc(OCc3ccccc3)cc2)cc1)C1SC(=O)NC1=O (stereo not drawn) | 51 to 53
CCCCCc1ccc(C#Cc2c3ccccc3c3ccc4c(C#Cc5ccc(CCCCC)cc5)c5ccccc5c5ccc2c3c45)cc1 | 256 to 257
Cc1cc(C)c2c(c1C)OCC2c1ccc(C2OCCO2)cc1 (stereo not drawn) | 107 to 108
CC1=C(C(=O)OCCN(C)Cc2ccc(Cl)cc2)C(c2cccc([N+](=O)[O-])c2)C(C(=O)OCC2CC2)=C(C)N1 (stereo not drawn) | 115 to 116
CCCCCC(O)CNC (stereo not drawn) | 40 to 43
Cc1ccc(S(=O)(=O)Oc2ccc(NC(=O)NCCCl)cc2)cc1 | 149 to 150
CC(C)(C)c1cc(SC(=O)NN)cc(C(C)(C)C)c1O | 130 to 131
CN1CCCNC(=O)C1 | 91

Next, values leading:

melting point [°C] | Compound
134 to 135 | CC(O)c1ccc2cc(S(N)(=O)=O)sc2c1 (stereo not drawn)
247 to 248 | O=C(O)C=Cc1cccc(-c2cccc([N+](=O)[O-])c2)c1
171 to 173 | Nc1ncc(-c2cccc3ccccc23)c(N)n1
210 to 212 | CC(C(=O)O)c1ccc2c(Br)c(OCc3ccc4ccccc4n3)ccc2c1 (stereo not drawn)
100 to 101 | COc1cc(OC)c2cnoc2c1
252 | COc1cc(C(=O)c2ncc3ccc(N)cn23)ccc1[N+](=O)[O-]
152 to 155 | O=C(O)C(=O)c1cn2c3c(cccc13)CCC2
161 to 162 | O=C1c2ccccc2C(=O)N1OCC=Cc1ccc(Br)cc1
243 to 248 | CCOC(=O)c1cn(-c2ccc(F)cc2F)c2nc(O)c(F)cc2c1=O
45 to 49 | CC#Cc1ncccc1C(=O)c1ccccc1Cl
134 to 135 | Clc1cnc(Cl)c2cc(Br)ccc12
219 to 221 | CCCOc1ccccc1-c1nc(-c2nnn[nH]2)cc(=O)[nH]1
196 to 198 | CC(Oc1cc2sc(NC(=O)NCCN3CCOCC3)nc2cc1Cl)c1c(Cl)ccc(F)c1Cl (stereo not drawn)
197 | Clc1ccc2c(c1)CCn1ccnc1C2=C1CCNCC1
118 to 120 | Cc1ccnc2c(N)cc3c(c12)OCO3
69 | Fc1ccc2sc(Cl)nc2c1
182 to 183 | CCOC(=O)CN(C)CC=CC(=O)Nc1ccc2ncnc(Nc3cccc(Br)c3)c2c1
65 to 67 | COc1ccc(-n2ccc3ccccc32)cc1F
> 300 | Cn1c2ccc([N+](=O)[O-])cc2c2c3c(ccc21)C(=O)OC3=O
171 to 173 | O=C(O)CCc1oc(-n2ccnc2CO)nc1-c1ccc(Cl)cc1

melting point [°C] | Compound
229 to 231 | O=C(O)c1ccccc1N1CCN(CC(O)COc2ccc3c(c2)OCO3)CC1 (stereo not drawn)
193 to 195 | COc1cc(CC2(C#N)c3cc(Cl)c(Cl)cc3C=CN2C(=O)c2ccccc2)cc(OC)c1OC (stereo not drawn)
79 to 80 | CS(=O)(=O)O[C@@H]1CCc2c(F)cc(F)cc2C1
150 to 154 | CCC1(c2cn(Cc3ccc(Cl)cc3)cn2)Cc2ccccc2C1=O (stereo not drawn)
236 to 237 | CC(S)C(=O)Nc1ccc(C2=NNC(=O)CC2C)cc1 (stereo not drawn)
91.5 to 93 | Cc1c(C(=O)O)cccc1-c1cccs1
147 to 148 | COC(=O)CS(=O)(=O)Nc1nc(-c2ncccc2C)cc2cccnc12
109 to 111 | COC(=O)c1c(-c2ccc(C)cc2)ccc2ccccc12
142 to 143 | COc1nccnc1NS(=O)(=O)c1cccc(F)c1
127 to 129 | CN(C)C(=O)c1ccccc1OCC(=O)NC(C)(C)c1ccc(Cl)cc1
158 to 161 | CC(=O)c1cc(Cl)ccc1Nc1ccc(O)cc1
219 to 220 | COc1ccc(-c2coc3ccc(C(=O)NNC(C)=O)cc23)cc1
179 to 181 | CC(C)c1ccc(CCCN(C)[C@H]2CC[C@H](c3ccc4[nH]c(=O)oc4c3)CC2)cc1
187 to 188 | Nc1ncc(Sc2ccc(O)cc2)s1
269 to 270 | COc1ccccc1Sc1c(O)c2c(Cl)cc(Cl)cc2[nH]c1=O
192 to 193 | CNC(=O)N(C)c1ccc(Cl)c(COc2cccn3c(Br)c(C)nc23)c1Cl
265 to 270 | O=C1c2cc3c(cc2-c2c1c(Cl)nc1ccccc21)OCO3
221 | COc1ncccc1-c1ccc(OC2SCC(OC(C)=O)C(OC(C)=O)C2OC(C)=O)c(Cl)n1 (stereo not drawn)
199 to 200 | O=c1c(-c2ccccc2)cc(CO)c2n1CCc1ccsc1-2
193 to 194 | O=C(O)CCCc1ccc(NS(=O)(=O)c2ccc(Cl)c(Cl)c2)cn1
